Key:
KAT-6A = KAT-6A (Homo sapiens (Human), UniProt Q92794); assay: KAT-6A biochemical inhibition assay (SAMDI mass spectrometry)
Procedure, shortened: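 IC50 values came from SAMDI time-of-flight mass spectrometry after formic acid quench (0.5% final). Acetylation ran 90 min at 25 °C with 1 μM acetyl coenzyme A and 1 μM peptide substrate, following compound pre-incubation with 12.5 nM KAT-6A in Tris buffer pH 8.0 containing DTT, 2% DMSO final.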

KAT-7 = KAT-7 (Homo sapiens (Human), UniProt O95251); assay: KAT-7 biochemical inhibition assay (SAMDI mass spectrometry)
Chain of KAT-7 (O95251 other isoform, or with tags, fused parts or gaps): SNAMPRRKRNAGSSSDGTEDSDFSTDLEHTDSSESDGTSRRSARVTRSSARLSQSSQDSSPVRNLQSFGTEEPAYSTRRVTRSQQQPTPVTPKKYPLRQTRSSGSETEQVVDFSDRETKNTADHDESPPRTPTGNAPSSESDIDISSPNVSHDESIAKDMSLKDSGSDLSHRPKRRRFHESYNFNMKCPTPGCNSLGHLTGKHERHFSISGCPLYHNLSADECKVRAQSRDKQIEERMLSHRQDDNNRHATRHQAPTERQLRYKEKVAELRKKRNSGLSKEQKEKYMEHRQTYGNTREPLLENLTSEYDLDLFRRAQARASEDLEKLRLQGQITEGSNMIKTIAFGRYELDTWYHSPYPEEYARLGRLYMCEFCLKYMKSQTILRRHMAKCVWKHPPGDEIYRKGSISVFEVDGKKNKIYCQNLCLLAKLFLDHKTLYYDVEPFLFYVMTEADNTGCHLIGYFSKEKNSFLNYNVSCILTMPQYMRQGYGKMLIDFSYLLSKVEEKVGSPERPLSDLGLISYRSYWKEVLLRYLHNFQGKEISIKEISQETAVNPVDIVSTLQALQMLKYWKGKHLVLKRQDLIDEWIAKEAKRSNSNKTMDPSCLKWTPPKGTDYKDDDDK
Procedure, shortened: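 Read-out was SAMDI time-of-flight MS of formic acid-quenched reactions (0.5% final). Compound dilutions (2% DMSO final) were pre-incubated with 6 nM KAT-7 in 50 mM Tris pH 8.0 with 1 mM DTT, then given 1 μM peptide substrate and 2 μM acetyl-CoA for 120 min at 25 °C. IC50 values were derived.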

KAT-8 = KAT-8 (Homo sapiens (Human), UniProt Q9H7Z6); assay: KAT-8 biochemical inhibition assay (SAMDI mass spectrometry)
Chain of KAT-8 (Q9H7Z6 other isoform, or with tags, fused parts or gaps): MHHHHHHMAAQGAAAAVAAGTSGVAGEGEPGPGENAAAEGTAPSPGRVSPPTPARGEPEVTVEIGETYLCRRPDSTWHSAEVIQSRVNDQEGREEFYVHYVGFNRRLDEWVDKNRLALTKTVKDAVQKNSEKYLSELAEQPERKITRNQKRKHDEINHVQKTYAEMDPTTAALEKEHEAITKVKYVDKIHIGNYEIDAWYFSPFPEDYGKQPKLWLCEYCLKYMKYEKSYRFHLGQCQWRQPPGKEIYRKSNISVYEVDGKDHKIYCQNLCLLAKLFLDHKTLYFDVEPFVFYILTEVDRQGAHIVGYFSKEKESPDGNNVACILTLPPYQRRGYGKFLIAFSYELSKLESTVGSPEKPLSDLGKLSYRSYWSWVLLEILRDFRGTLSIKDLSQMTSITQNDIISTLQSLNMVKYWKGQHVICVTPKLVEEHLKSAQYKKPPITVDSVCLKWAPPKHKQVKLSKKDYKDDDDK
Procedure, shortened: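 Acetylation of 1 μM peptide substrate with 5 μM acetyl-CoA by 12.5 nM enzyme, compound pre-incubated, 2% DMSO, Tris pH 8.0 buffer with DTT, 25 °C for 90 min. Quench with 0.5% formic acid; product read by SAMDI mass spectrometry to give IC50.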

KAT-5 = KAT-5 (Homo sapiens (Human), UniProt Q92993); assay: KAT-5 biochemical inhibition assay (SAMDI mass spectrometry)
Chain of KAT-5 (Q92993 other isoform, or with tags, fused parts or gaps): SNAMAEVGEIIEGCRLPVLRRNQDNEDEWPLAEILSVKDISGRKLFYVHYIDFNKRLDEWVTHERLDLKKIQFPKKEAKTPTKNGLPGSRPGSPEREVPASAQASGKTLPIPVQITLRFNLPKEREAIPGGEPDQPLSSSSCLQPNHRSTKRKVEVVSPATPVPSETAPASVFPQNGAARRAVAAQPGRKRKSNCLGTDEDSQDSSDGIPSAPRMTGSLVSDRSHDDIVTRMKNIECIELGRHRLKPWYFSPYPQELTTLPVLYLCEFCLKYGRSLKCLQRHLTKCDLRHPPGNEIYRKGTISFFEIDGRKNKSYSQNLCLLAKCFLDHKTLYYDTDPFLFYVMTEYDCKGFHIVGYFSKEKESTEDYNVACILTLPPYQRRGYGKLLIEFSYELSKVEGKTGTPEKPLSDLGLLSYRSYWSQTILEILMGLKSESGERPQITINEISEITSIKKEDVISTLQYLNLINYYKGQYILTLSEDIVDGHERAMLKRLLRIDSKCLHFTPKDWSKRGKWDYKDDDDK
Procedure, shortened: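 Acetylation of 1 μM peptide by 9 nM enzyme with 0.5 μM acetyl-CoA (final) was run 90 min at 25° C in Tris pH 8.0 buffer with DTT, after compound preincubation at 2% DMSO. Formic acid stopped the reaction, and product was quantified by SAMDI mass spectrometry to derive IC50.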

Chain of KAT-6A (Q92794 other isoform, or with tags, fused parts or gaps): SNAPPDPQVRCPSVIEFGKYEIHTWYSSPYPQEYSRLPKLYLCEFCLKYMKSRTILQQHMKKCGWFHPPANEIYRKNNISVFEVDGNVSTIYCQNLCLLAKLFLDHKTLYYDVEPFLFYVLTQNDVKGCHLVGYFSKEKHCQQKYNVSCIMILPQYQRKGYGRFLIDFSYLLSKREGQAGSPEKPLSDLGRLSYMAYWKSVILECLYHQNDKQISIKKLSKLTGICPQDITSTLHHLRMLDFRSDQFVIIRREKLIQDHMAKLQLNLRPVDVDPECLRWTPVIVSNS

| Structure (SMILES) | IC50 (KAT-6A) [µM] | IC50 (KAT-7) [µM] | IC50 (KAT-8) [µM] | IC50 (KAT-5) [µM] |
| --- | --- | --- | --- | --- |
| CN(C)C(=O)N(C)C1CCCC(CS(=O)(=O)NNC(=O)c2cc(-c3cn(C)cn3)cc(Cl)c2F)C1 (stereo not shown) [Compound I-292] | < 10 | < 10 | 10 to 50 | < 10 |
| CCNC(=O)N[C@H]1CC[C@H](CS(=O)(=O)NNC(=O)c2cc(-c3cn(C)cn3)cc(Cl)c2F)CC1 [Compound I-109] | < 10 | < 10 | 10 to 50 | < 10 |
| COCc1nc(-c2cc(Cl)c(F)c(C(=O)NNS(=O)(=O)CC3CCCCC3)c2)cn1C [Compound I-226] | 10 to 50 | < 10 | 10 to 50 | < 10 |
| Cc1nn(C)c(C)c1-c1cc(Cl)c(F)c(C(=O)NNS(=O)(=O)CC2CCOCC2)c1 [Compound I-58] | > 100 | > 100 | > 100 | > 100 |
| CNC(=O)NC1CCCC(CS(=O)(=O)NNC(=O)c2cc(-c3cn(C)cn3)cc(Cl)c2F)C1 (stereo not shown) [Compound I-118] | < 10 | < 10 | 10 to 50 | < 10 |
| CCNC(=O)N[C@H]1CCC[C@@H](CS(=O)(=O)NNC(=O)c2cc(-c3cn(C)cn3)cc(Cl)c2F)C1 [Compound I-287] | < 10 | < 10 | 10 to 50 | < 10 |
| Cn1cnc(-c2cc(Cl)c(F)c(C(=O)NNS(=O)(=O)N3CCOCC3)c2)c1 [Compound I-108] | 10 to 50 | < 10 | 10 to 50 | 10 to 50 |
| CN1CCN(C2CCCC(CS(=O)(=O)NNC(=O)c3cc(-c4cn(C)cn4)cc(Cl)c3F)C2)C1=O (stereo not shown) [Compound I-281] | < 10 | < 10 | 10 to 50 | < 10 |
| Cn1cnc(-c2ccc(F)c(C(=O)NNS(=O)(=O)C[C@H]3CCC[C@H](O)C3)c2)c1 [Compound I-305] | 10 to 50 | < 10 | 10 to 50 | 10 to 50 |
| CCNC(=O)N1[C@H]2CC[C@@H](CS(=O)(=O)NNC(=O)c3cc(-c4cn(C)cn4)cc(Cl)c3F)[C@@H]1CC2 [Compound I-260] | < 10 | < 10 | 10 to 50 | < 10 |
| Cn1ccc(-c2cc(Cl)c(F)c(C(=O)NNS(=O)(=O)CC3CCCCC3)c2)n1 [Compound I-4] | < 10 | < 10 | 50 to 100 | < 10 |
| COc1ccccc1S(=O)(=O)NNC(=O)c1cc(-c2cn(C)cn2)cc(Cl)c1F [Compound I-321] | < 10 | < 10 | 10 to 50 | < 10 |
| CNC1CCC(CS(=O)(=O)NNC(=O)c2cc(-c3cn(C)cn3)cc(Cl)c2F)CC1 (stereo not shown) [Compound I-297] | 10 to 50 | < 10 | 10 to 50 | 10 to 50 |
| CC(=O)N[C@H]1C[C@@H](CS(=O)(=O)NNC(=O)c2cc(-c3cn(C)cn3)cc(Cl)c2F)C1 [Compound I-116] | < 10 | < 10 | 10 to 50 | < 10 |
| COCCOc1cccc(S(=O)(=O)NNC(=O)c2cc(-c3cn(C)cn3)cc(Cl)c2F)c1 [Compound I-368] | < 10 | < 10 | 10 to 50 | < 10 |
| Cc1ncnn1-c1cc(Cl)c(F)c(C(=O)NNS(=O)(=O)CC2CCOCC2)c1 [Compound I-100] | 10 to 50 | 10 to 50 | 10 to 50 | 10 to 50 |
| Cn1cnc(-c2cc(Cl)c(F)c(C(=O)NNS(=O)(=O)CC3CCCC3)c2)c1 [Compound I-20] | < 10 | < 10 | 50 to 100 | < 10 |

Now from value to molecule:

| IC50 (KAT-6A) [µM] | IC50 (KAT-7) [µM] | IC50 (KAT-8) [µM] | IC50 (KAT-5) [µM] | Structure (SMILES) |
| --- | --- | --- | --- | --- |
| < 10 | < 10 | 10 to 50 | < 10 | CCNC(=O)N1CCC(CS(=O)(=O)NNC(=O)c2cc(-c3cn(C)cn3)cc(Cl)c2F)C1 (stereo not shown) [Compound I-64] |
| 10 to 50 | < 10 | 10 to 50 | < 10 | CNC(=O)N1CC[C@H](CS(=O)(=O)NNC(=O)c2cc(-c3cn(C)cn3)cc(Cl)c2F)C1 [Compound I-210] |
| 10 to 50 | < 10 | > 100 | 10 to 50 | Cc1nc(-c2cc(Cl)c(F)c(C(=O)NNS(=O)(=O)CC3CCOCC3)c2)cn1C [Compound I-33] |
| < 10 | < 10 | 10 to 50 | < 10 | Cn1cnc(-c2cc(Cl)c(F)c(C(=O)NNS(=O)(=O)CC3(F)CCCCC3)c2)c1 [Compound I-358] |
| < 10 | < 10 | 10 to 50 | < 10 | CCNC(=O)N1CCCC(CS(=O)(=O)NNC(=O)c2cc(-c3cn(C)cn3)cc(Cl)c2F)C1 (stereo not shown) [Compound I-105] |
| < 10 | < 10 | 10 to 50 | < 10 | CCC(=O)NC1CCCC(CS(=O)(=O)NNC(=O)c2cc(-c3cn(C)cn3)cc(Cl)c2F)C1 (stereo not shown) [Compound I-199] |
| 10 to 50 | < 10 | 10 to 50 | 10 to 50 | COCC(=O)N1CCC(CS(=O)(=O)NNC(=O)c2cc(-c3cn(C)cn3)cc(Cl)c2F)C1 (stereo not shown) [Compound I-62] |
| 10 to 50 | < 10 | 50 to 100 | < 10 | Cn1cnc(-c2cc(Cl)c(F)c(C(=O)NNS(=O)(=O)CC3CCCCC3O)c2)c1 (stereo not shown) [Compound I-384] |
| < 10 | < 10 | 10 to 50 | < 10 | CN(C)C(=O)N[C@H]1CC[C@@H](CS(=O)(=O)NNC(=O)c2cc(-c3cn(C)cn3)cc(Cl)c2F)CC1 [Compound I-163] |
| 10 to 50 | 10 to 50 | 10 to 50 | < 10 | O=C(NNS(=O)(=O)CC1CCOCC1)c1cc(-c2cocn2)cc(Cl)c1F [Compound I-68] |
| 10 to 50 | 10 to 50 | > 100 | 10 to 50 | Cn1cc(-c2cc(Cl)c(F)c(C(=O)NNS(=O)(=O)CC3CCOCC3)c2)nn1 [Compound I-67] |
| < 10 | < 10 | 10 to 50 | < 10 | CCOC1CCC(CS(=O)(=O)NNC(=O)c2cc(-c3cn(C)cn3)cc(Cl)c2F)CC1 (stereo not shown) [Compound I-347] |
| < 10 | < 10 | 10 to 50 | < 10 | Cn1cnc(-c2cc(Cl)c(F)c(C(=O)NNS(=O)(=O)CC3CCC(NC(=O)N4CCC4)C3)c2)c1 (stereo not shown) [Compound I-341] |
| 10 to 50 | < 10 | 10 to 50 | 10 to 50 | Cn1cnc(-c2cc(Cl)c(F)c(C(=O)NNS(=O)(=O)C[C@H]3CCC[C@@H](N)C3)c2)c1 [Compound I-253] |
| < 10 | < 10 | 10 to 50 | < 10 | Cn1cnc(-c2cc(Cl)c(F)c(C(=O)NNS(=O)(=O)C[C@H]3CCC[C@@H](O)C3)c2)c1 [Compound I-300] |
| < 10 | < 10 | 10 to 50 | < 10 | Cn1cnc(-c2cc(Cl)c(F)c(C(=O)NNS(=O)(=O)C[C@H]3CC[C@H](NC(=O)Cc4ccccn4)CC3)c2)c1 [Compound I-249] |
| < 10 | < 10 | 10 to 50 | 10 to 50 | Cn1cnc(-c2cc(Cl)c(F)c(C(=O)NNS(=O)(=O)c3nccn3C)c2)c1 [Compound I-284] |

Reference: patent US11685732B2, “MYST family histone acetyltransferase inhibitors” (Epizyme, Inc., priority 2017, dated 2023)
